Data reported in patent publication US11085053B2, “Efficient selectivity of recombinant proteins” (REGENERON PHARMACEUTICALS, INC., priority 2014, dated 2021).

Test system: Modified CHO K1 cells
Test: Selection efficiency of transfectant cells by FACS (GFP+ population)
Format: cell-based, Chinese hamster
Text: Modified CHO K1 cells were transfected with a plasmid vector containing CHO-GPT (SEQ ID NO: 2), human GPT (SEQ ID NO:12) or a plasmid vector containing a hygromycin phosphotransferase (Hpt, Hygromycin resistant gene); e.g. the selectable marker gene (CHO-GPT or hpt) was transcriptionally linked to a downstream eGFP gene via an IRES sequence, in their respective vectors. For example, each plasmid was constructed to contain the following gene sequences, in 5′ to 3′ direction: a Lox site, a SV40 late promoter, either CHO-GPT (or Hpt), IRES, enhanced green fluorescent protein (eGFP), and a second Lox site. Purified recombinant plasmids were transfected together with a plasmid that expresses Cre recombinase, into a modified CHO host cell line containing: from 5′ to 3′, a lox site, YFP, and a second lox site, at a transcriptionally active locus. Consequently, the host CHO cell can be isolated by flow cytometry as a green-positive or a yellow-negative cell. […]
Cell populations were either incubated with 0, 1 μg/ml, 2.5 μg/ml or 5 μg/ml tunicamycin (Tn) or 400 μg hygromycin (Hyg), as outlined in Table 2. Observed recombinant populations (ORPs) were measured by fluorescent-activated cell sorting (FACS) analysis. Cells were sorted to quantitate each population of cells, and selection efficiency was calculated for cells expressing only GFP and not YFP (FIG. 4 or 5). […]

Substance: tunicamycin
- Selection efficiency compared with hygromycin selection: as efficient as hygromycin selection
